Test system: Col1α2 mRNA expression in rat skin
Assay: Col1α2 mRNA expression in rat model of skin fibrosis and wounding, intradermal treatment (Example 9)
Format: in vivo
Description: Scar and fibrotic tissues are mainly composed of collagen, especially collagen1α2 (Col1α2). Therefore, the expression of Col1α2 can be used as a marker for the severity of scarring, especially in skin. We have evaluated the ability of a TGF-beta1 ASO to suppress the expression of Col1α2 in rat skin subsequent to full-thickness skin wounding, an injury that typically leads to a 4-6 fold induction in Col1α2 expression.
On Day 1 of the study, a 0.8 centimeter biopsy punch was used to create full-thickness wounds on the back of anesthetized adult hairless rats. Two biopsies were performed on each rat's back; one in the lower left quadrant, and one in the upper right quadrant. The wounds were left open, but dressed with a sterile occlusive bandage, which were left in place for 24 hours.
Biopsy sites were treated intradermally with PBS (vehicle) or a 3 mg dose of a rat specific TGF-beta1 antisense oligonucleotide (Oligo ID 433849; SEQ ID NO. 166) on Days 1, 5, 9, and 13 post-biopsy. Animals were sacrificed on Day 14 post-biopsy. […]
A subset of the excised skin from each initial biopsy site was retained and prepared for Col1α2 mRNA expression (by RT-PCR). […] On day 15, animals were euthanized, a sample of skin from the center of the wound was obtained with a 0.5 cm biopsy punch, and Col1α2 mRNA expression determined.

433849 (antisense GTCCTTAAATACAGCCCCGG; listed as DNA, chemistry not given here) [compound 433849]
expression of Col1α2 in rat skin (3 mg intradermally on Days 1, 5, 9, 13 post-biopsy, day 14 after skin wounding): significantly reduced | % Col1α2 mRNA compared to the unwounded control (hairless rats, full-thickness skin wound, 3 mg intradermal on Days 1, 5, 9, 13, day 14 after skin wounding): 83%

Source: patent US20110172296A1, “MODULATION OF TRANSFORMING GROWTH FACTOR-BETA 1 EXPRESSION” (priority 2010, published 2011)
